Test results: PubChem BioAssay AID330 (DTP/NCI, 2004)
Where “and” joins values, the source holds several entries; their conditions need not be identical. Equal entries are not always repeated. Inconclusive results and toxic doses are left out.

Tested on: P388 leukemia ip, CD2F1 mice, survival T/C
Test: NCI In Vivo Anticancer Drug Screen. Data for tumor model P388 Leukemia (intraperitoneal) in CD2F1 (CDF1) mice
Settings: endpoint: median survival time, higher = longer survival
Procedure, shortened: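 Mice carrying the transplanted tumor received test compound or vehicle. Survival was recorded in each group, and the value is the treated-group measurement divided by that of the vehicle-treated control group.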

[1] = dose: 6.25 mg/kg/injection, schedule: Q01DX005 (ip), vehicle: Klucel (hydroxypropylcellulose) (HPC)
[2] = dose: 12.5 mg/kg/injection, schedule: Q01DX005 (ip), vehicle: Klucel (hydroxypropylcellulose) (HPC)
[3] = dose: 25.0 mg/kg/injection, schedule: Q01DX005 (ip), vehicle: Klucel (hydroxypropylcellulose) (HPC)
[4] = dose: 25.0 mg/kg/injection, schedule: Q01DX009 (ip), vehicle: saline with Tween-80
[5] = dose: 50.0 mg/kg/injection, schedule: Q01DX009 (ip), vehicle: saline with Tween-80
[6] = dose: 100.0 mg/kg/injection, schedule: Q01DX009 (ip), vehicle: saline with Tween-80
[7] = dose: 200.0 mg/kg/injection, schedule: Q01DX009 (ip), vehicle: saline with Tween-80
[8] = dose: 25.0 mg/kg/injection, schedule: Q01DX009 (ip), vehicle: Klucel (hydroxypropylcellulose) (HPC)
[9] = dose: 50.0 mg/kg/injection, schedule: Q01DX009 (ip), vehicle: Klucel (hydroxypropylcellulose) (HPC)
[10] = dose: 100.0 mg/kg/injection, schedule: Q01DX009 (ip), vehicle: Klucel (hydroxypropylcellulose) (HPC)
[11] = dose: 100.0 mg/kg/injection, schedule: Q01DX001 (ip), vehicle: saline with Tween-80
[12] = dose: 200.0 mg/kg/injection, schedule: Q01DX001 (ip), vehicle: saline with Tween-80
[13] = dose: 50.0 mg/kg/injection, schedule: Q01DX005 (ip), vehicle: Klucel (hydroxypropylcellulose) (HPC)
[14] = dose: 100.0 mg/kg/injection, schedule: Q01DX005 (ip), vehicle: Klucel (hydroxypropylcellulose) (HPC)
[15] = dose: 100.0 mg/kg/injection, schedule: Q01DX001 (ip), vehicle: Klucel (hydroxypropylcellulose) (HPC)
[16] = dose: 200.0 mg/kg/injection, schedule: Q01DX001 (ip), vehicle: Klucel (hydroxypropylcellulose) (HPC)
[17] = dose: 400.0 mg/kg/injection, schedule: Q01DX001 (ip), vehicle: Klucel (hydroxypropylcellulose) (HPC)
[18] = dose: 50.0 mg/kg/injection, schedule: Q01DX005 (ip), vehicle: saline with Tween-80
[19] = dose: 100.0 mg/kg/injection, schedule: Q01DX005 (ip), vehicle: saline with Tween-80
[20] = dose: 200.0 mg/kg/injection, schedule: Q01DX005 (ip), vehicle: saline with Tween-80

Cc1ccc(-n2c(C)nc3c(c(C)c(C)n3-c3ccccc3)c2=N)cc1
T/C [1]: 90 % of control
T/C [2]: 100 % of control
T/C [3]: 98 % of control

O=C(CCl)NCc1ccc([N+](=O)[O-])cc1
T/C [4]: 108 % of control
T/C [5]: 112 % of control
T/C [6]: 108 % of control
T/C [7]: 103 % of control

CCCCc1c(C)[nH]n(C(N)=NCCSCc2nc[nH]c2C)c1=O
T/C (dose: 60.0 mg/kg/injection, schedule: Q01DX005 (ip), vehicle: Klucel (hydroxypropylcellulose) (HPC)): 100 % of control
T/C (dose: 120.0 mg/kg/injection, schedule: Q01DX005 (ip), vehicle: Klucel (hydroxypropylcellulose) (HPC)): 99 % of control
T/C (dose: 240.0 mg/kg/injection, schedule: Q01DX005 (ip), vehicle: Klucel (hydroxypropylcellulose) (HPC)): 100 % of control

O=C1CN2C(=O)C1(c1ccccc1)C(=O)NC2=S (stereo unspecified)
T/C (dose: 100.0 mg/kg/injection, schedule: Q04DX002 (ip), vehicle: Klucel (hydroxypropylcellulose) (HPC)): 105 % of control
T/C (dose: 200.0 mg/kg/injection, schedule: Q04DX002 (ip), vehicle: Klucel (hydroxypropylcellulose) (HPC)): 106 % of control
T/C (dose: 400.0 mg/kg/injection, schedule: Q04DX002 (ip), vehicle: Klucel (hydroxypropylcellulose) (HPC)): 106 % of control

O=C1c2ccccc2CCC12OC2c1ccncc1 (stereo unspecified)
T/C [8]: 107 % of control
T/C [9]: 110 % of control
T/C [10]: 100 % of control

CC(=O)Nc1ccc(-c2cn3ccccc3n2)cc1
T/C [5]: 100 % of control
T/C [6]: 92 % of control
T/C [7]: 106 % of control

Cc1ccc2c(ccc(/C=C/c3ccc(O)c4ncccc34)[n+]2C)c1
T/C (dose: 12.5 mg/kg/injection, schedule: Q01DX009 (ip), vehicle: saline with Tween-80): 116 % of control
T/C [4]: 105 % of control

O=C(c1cccnc1)N(Cc1ccccc1)C(=O)c1cccnc1
T/C (dose: 25.0 mg/kg/injection, schedule: Q01DX001 (ip), vehicle: saline with Tween-80): 99 % of control
T/C (dose: 50.0 mg/kg/injection, schedule: Q01DX001 (ip), vehicle: saline with Tween-80): 106 % of control
T/C [11]: 100 % of control
T/C [12]: 106 % of control

[N-]=[N+]=NC1(N=[N+]=[N-])C(=O)Nc2ccc(Cl)cc2C1=O (stereo unspecified)
T/C [13]: 107 % of control
T/C [14]: 88 % of control

COc1cc(C(C)c2cc3c(cc2OC)OCO3)ccc1OCc1ccccc1 (stereo unspecified)
T/C (dose: 25.0 mg/kg/injection, schedule: Q01DX005 (ip), vehicle: distilled water + Tween-80): 103 % of control
T/C (dose: 50.0 mg/kg/injection, schedule: Q01DX005 (ip), vehicle: distilled water + Tween-80): 99 % of control and 87 % of control
T/C (dose: 100.0 mg/kg/injection, schedule: Q01DX005 (ip), vehicle: distilled water + Tween-80): 100 % of control
T/C (dose: 200.0 mg/kg/injection, schedule: Q01DX005 (ip), vehicle: distilled water + Tween-80): 94 % of control

CCC12CCCN1CCc1c([nH]c3ccccc13)C2=O (stereo unspecified)
T/C (dose: 100.0 mg/kg/injection, schedule: Q04DX002 (ip), vehicle: suspension in saline): 105 % of control
T/C (dose: 200.0 mg/kg/injection, schedule: Q04DX002 (ip), vehicle: suspension in saline): 99 % of control

Cc1nc2ccccc2c2nnc(SCC(=O)N(Cc3ccccc3)c3ccccc3)n12
T/C [13]: 99 % of control
T/C [14]: 100 % of control
T/C (dose: 200.0 mg/kg/injection, schedule: Q01DX005 (ip), vehicle: Klucel (hydroxypropylcellulose) (HPC)): 102 % of control

COc1ccc(-c2sc(/N=C/c3cc(OC)c(OC)c(OC)c3)c(C#N)c2C)cc1OC
T/C (dose: 50.0 mg/kg/injection, schedule: Q04DX003 (ip), vehicle: saline with Tween-80): 101 % of control
T/C (dose: 100.0 mg/kg/injection, schedule: Q04DX003 (ip), vehicle: saline with Tween-80): 99 % of control
T/C (dose: 200.0 mg/kg/injection, schedule: Q04DX003 (ip), vehicle: saline with Tween-80): 100 % of control
T/C (dose: 400.0 mg/kg/injection, schedule: Q04DX003 (ip), vehicle: saline with Tween-80): 90 % of control

Nc1nnc2cccc(Cl)n12
T/C [15]: 98 % of control
T/C [16]: 96 % of control
T/C [17]: 99 % of control

C=CC(=O)NN=C(c1ccccc1)c1ccccc1
T/C (dose: 42.0 mg/kg/injection, schedule: Q01DX009 (ip), vehicle: saline with Tween-80): 98 % of control
T/C (dose: 84.0 mg/kg/injection, schedule: Q01DX009 (ip), vehicle: saline with Tween-80): 103 % of control
T/C (dose: 168.0 mg/kg/injection, schedule: Q01DX009 (ip), vehicle: saline with Tween-80): 100 % of control

Cc1ccc2no[n+]([O-])c2c1[N+](=O)[O-]
T/C [18]: 118 % of control and 119 % of control
T/C [19]: 121 % of control
T/C [20]: 150 % of control

COc1cc(OC)c(C(=O)CCl)c(O)c1Cl
T/C [4]: 113 % of control
T/C (dose: 66.0 mg/kg/injection, schedule: Q01DX009 (ip), vehicle: saline with Tween-80): 110 % of control

Nc1cccc(NCc2ccncc2)n1
T/C [1]: 98 % of control and 99 % of control and 100 % of control
T/C [2]: 100 % of control and 101 % of control and 94 % of control
T/C [3]: 100 % of control (2×) and 96 % of control
T/C [14]: 113 % of control

CC1(C)OC(=O)C(Cc2c[nH]c3ccccc23)C(=O)O1
T/C [5]: 108 % of control
T/C [6]: 100 % of control
T/C [7]: 94 % of control

N#Cc1c(-c2ccccc2)nc2n1CCS2
T/C [15]: 102 % of control
T/C [16]: 100 % of control
T/C [17]: 100 % of control

Cn1c(=O)c(CCCC(=O)O)nc2ccccc21
T/C (dose: 100.0 mg/kg/injection, schedule: Q04DX002 (ip), vehicle: saline with Tween-80): 97 % of control
T/C (dose: 200.0 mg/kg/injection, schedule: Q04DX002 (ip), vehicle: saline with Tween-80): 102 % of control
T/C (dose: 400.0 mg/kg/injection, schedule: Q04DX002 (ip), vehicle: saline with Tween-80): 107 % of control

CCn1c(=O)c2n[nH]nc2n(C2CC2)c1=O
T/C (dose: 50.0 mg/kg/injection, schedule: Q01DX009 (ip), vehicle: saline): 92 % of control
T/C (dose: 100.0 mg/kg/injection, schedule: Q01DX009 (ip), vehicle: saline): 96 % of control
T/C (dose: 200.0 mg/kg/injection, schedule: Q01DX009 (ip), vehicle: saline): 105 % of control

CCn1c(=O)c(Cl)c2n(CC)c3ccccc3n2c1=O
T/C (dose: 60.0 mg/kg/injection, schedule: Q01DX005 (ip), vehicle: saline with Tween-80): 97 % of control
T/C (dose: 120.0 mg/kg/injection, schedule: Q01DX005 (ip), vehicle: saline with Tween-80): 89 % of control
T/C (dose: 240.0 mg/kg/injection, schedule: Q01DX005 (ip), vehicle: saline with Tween-80): 87 % of control

CC(C)=C[Si](C)(C)C
T/C [5]: 103 % of control
T/C [6]: 110 % of control
T/C [7]: 103 % of control

CCOc1ccc2nc3cc(N=Nc4cc5ccccc5[nH]4)ccc3c(N)c2c1
T/C [11]: 97 % of control
T/C [12]: 94 % of control
T/C (dose: 400.0 mg/kg/injection, schedule: Q01DX001 (ip), vehicle: saline with Tween-80): 103 % of control

CS/C(=C\c1ccc2ccccc2[n+]1C)N1CCN(CCCO)CC1
T/C (dose: 15.0 mg/kg/injection, schedule: Q01DX005 (ip), vehicle: saline): 104 % of control
T/C (dose: 30.0 mg/kg/injection, schedule: Q01DX005 (ip), vehicle: saline): 95 % of control
T/C (dose: 60.0 mg/kg/injection, schedule: Q01DX005 (ip), vehicle: saline): 95 % of control

CN(C)c1ccc(C=C2C(=O)CC(C)(C)CC2=O)cc1
T/C [8]: 106 % of control
T/C [9]: 97 % of control
T/C [10]: 92 % of control
T/C (dose: 200.0 mg/kg/injection, schedule: Q01DX009 (ip), vehicle: Klucel (hydroxypropylcellulose) (HPC)): 93 % of control

CNc1nc(N)nc2c1nc(Cl)n2C1OC(CO)C(O)C1O (stereo unspecified)
T/C [18]: 102 % of control
T/C [19]: 101 % of control
T/C [20]: 95 % of control
